# From patent US9302999B2, “Substituted triazoles as herbicides” (E. I. DU PONT DE NEMOURS AND COMPANY, priority 2012, dated 2016)
# Assays:
# Assay type in all cases: in vivo
# [1] = test system: velvetleaf (Abutilon theophrasti); assay: Test A pre-/postemergence: velvetleaf; details: for Velvetleaf plant response rating: visual rating on 0 to 100 scale (0 no effect, 100 complete control), approximately ten days
# Outline: (§1)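 Rating scale 0–100 (100 = complete control), visual, ~10 days after application in the greenhouse. Applications: preemergence directed soil spray; postemergence at 1–2 leaves.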
# [2] = test system: pigweed (Amaranthus retroflexus); assay: Test C pre-/postemergence: pigweed
# Outline: (§2)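 Preemergence on seeds in loam/sand, postemergence on 2–18 cm (1–4-leaf) plants in peat-based medium; compounds in non-phytotoxic solvent with surfactant. After 13–15 days in greenhouse, visual rating versus controls, 0 (no effect) to 100 (complete control).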
# [3] = test system: galium (catchweed bedstraw, Galium aparine); assay: Test C pre-/postemergence: galium
# Outline: as §2
# wild oat (Avena fatua) = assay: Test C pre-/postemergence: wild oat; details: Postemergence
# Outline: as §2
# [4] = test system: johnsongrass (Sorghum halepense); assay: Test C pre-/postemergence: johnsongrass
# Outline: as §2
# [5] = test system: ragweed (common ragweed, Ambrosia elation); assay: Test C pre-/postemergence: ragweed
# Outline: as §2
# [6] = test system: velvetleaf (Abutilon theophrasti); assay: Test C pre-/postemergence: velvetleaf
# Outline: as §2
# kochia (Kochia scoparia) = assay: Test C pre-/postemergence: kochia; details: Postemergence
# Outline: as §2
# corn (Zea mays) = assay: Test C pre-/postemergence: corn
# Outline: as §2
# [7] = test system: morningglory (Ipomoea spp.); assay: Test A pre-/postemergence: morningglory; details: for Morningglory plant response rating: visual rating on 0 to 100 scale (0 no effect, 100 complete control), approximately ten days
# Outline: as §1
# [8] = test system: large crabgrass (Digitaria sanguinalis); assay: Test C pre-/postemergence: large crabgrass
# Outline: as §2
# [9] = test system: blackgrass (Alopecurus myosuroides); assay: Test C pre-/postemergence: blackgrass
# Outline: as §2
# [10] = Postemergence, 125 g ai/ha, 0 to 100 scale, 0 is no effect, 100 is complete control
# [11] = Preemergence, 125 g ai/ha, 0 to 100 scale where 0 is no effect and 100 is complete control
# [12] = Preemergence, 500 g ai/ha, 0 to 100 scale (0 no effect, 100 complete control)
# [13] = Postemergence, 31 g ai/ha, scale 0 to 100 (0 no effect, 100 complete control)
# [14] = Postemergence, 62 g ai/ha, scale 0 to 100 (0 no effect, 100 complete control)
# [15] = Postemergence, 125 g ai/ha, scale 0 to 100, 0 no effect, 100 complete control
# [16] = Postemergence, 250 g ai/ha, scale 0 to 100
# [17] = Preemergence, 31 g ai/ha, scale of 0 to 100, 0 is no effect, 100 is complete control
# [18] = Preemergence, 62 g ai/ha, scale of 0 to 100, 0 is no effect, 100 is complete control
# [19] = Preemergence, 125 g ai/ha, scale 0 to 100, 0 no effect, 100 complete control
# [20] = Preemergence, 250 g ai/ha, scale 0 to 100, 0 no effect, 100 complete control
# [21] = 31 g ai/ha, scale 0 to 100 (0 no effect, 100 complete control)
# [22] = 62 g ai/ha, scale 0 to 100 (0 no effect, 100 complete control)
# [23] = 125 g ai/ha, scale 0 to 100, 0 no effect, 100 complete control
structure (smiles),measurement,setting,value
CCCc1nn(-c2ccc(F)cc2)nc1Cc1ccnc(C(F)(F)F)c1 [Compound 153],"Plant response rating, Velvetleaf",[1]; [10],100
same,Velvetleaf plant response rating,"[1]; Postemergence, 500 g ai/ha",100
same,"Plant response rating, Velvetleaf",[1]; [11],80
same,"Plant response rating, Velvetleaf",[1]; [12],100
same,"Plant response rating, Pigweed",[2]; [13],95
same,"Plant response rating, Pigweed",[2]; [14],95
same,"Plant response rating, Pigweed",[2]; [15],98
same,"Plant response rating, Pigweed",[2]; [16],98
same,"Plant response rating, Pigweed",[2]; [17],100
same,"Plant response rating, Pigweed",[2]; [18],100
same,"Plant response rating, Pigweed",[2]; [19],100
same,"Plant response rating, Pigweed",[2]; [20],100
same,"Plant response rating, Galium",[3]; [13],60
same,"Plant response rating, Galium",[3]; [14],65
same,"Plant response rating, Galium",[3]; [15],85
same,"Plant response rating, Galium",[3]; [16],85
same,"Plant response rating, Galium",[3]; [17],80
same,"Plant response rating, Galium",[3]; [18],98
same,"Plant response rating, Galium",[3]; [19],100
same,"Plant response rating, Galium",[3]; [20],100
same,"Plant response rating, Oat, Wild",wild oat (Avena fatua); [21],35
same,"Plant response rating, Oat, Wild",wild oat (Avena fatua); [22],50
same,"Plant response rating, Oat, Wild",wild oat (Avena fatua); [23],70
same,"Plant response rating, Oat, Wild","wild oat (Avena fatua); 250 g ai/ha, scale 0 to 100",85
same,"Plant response rating, Johnsongrass",[4]; [13],40
same,"Plant response rating, Johnsongrass",[4]; [15],60
same,"Plant response rating, Johnsongrass",[4]; [16],90
same,"Plant response rating, Johnsongrass",[4]; [17],90
same,"Plant response rating, Johnsongrass",[4]; [18],90
same,"Plant response rating, Johnsongrass",[4]; [19],95
same,"Plant response rating, Johnsongrass",[4]; [20],98
same,"Plant response rating, Ragweed",[5]; [13],55
same,"Plant response rating, Ragweed",[5]; [14],55
same,"Plant response rating, Ragweed",[5]; [15],80
same,"Plant response rating, Ragweed",[5]; [16],85
same,"Plant response rating, Ragweed",[5]; [17],5
same,"Plant response rating, Ragweed",[5]; [18],10
same,"Plant response rating, Ragweed",[5]; [19],80
same,"Plant response rating, Ragweed",[5]; [20],80
same,"Plant response rating, Velvetleaf",[6]; [13],50
same,"Plant response rating, Velvetleaf",[6]; [14],60
same,"Plant response rating, Velvetleaf",[6]; [15],65
same,"Plant response rating, Velvetleaf",[6]; [16],95
same,"Plant response rating, Velvetleaf",[6]; [18],85
same,"Plant response rating, Velvetleaf",[6]; [19],95
same,"Plant response rating, Velvetleaf",[6]; [20],100
same,"Plant response rating, Kochia",kochia (Kochia scoparia); [21],90
same,"Plant response rating, Kochia",kochia (Kochia scoparia); [22],90
same,"Plant response rating, Kochia",kochia (Kochia scoparia); [23],90
same,"Plant response rating, Kochia","kochia (Kochia scoparia); 250 g ai/ha, scale 0 to 100",90
same,"Plant response rating, Corn",corn (Zea mays); [13],20
same,"Plant response rating, Corn",corn (Zea mays); [14],25
same,"Plant response rating, Corn",corn (Zea mays); [15],45
same,"Plant response rating, Corn",corn (Zea mays); [16],55
same,"Plant response rating, Corn",corn (Zea mays); [17],10
same,"Plant response rating, Corn",corn (Zea mays); [18],25
same,"Plant response rating, Corn",corn (Zea mays); [19],25
same,"Plant response rating, Corn",corn (Zea mays); [20],35
same,"Plant response rating, Morningglory",[7]; [10],90
same,Morningglory plant response rating,"[7]; Postemergence, 500 g ai/ha",100
same,"Plant response rating, Morningglory",[7]; [11],80
same,"Plant response rating, Morningglory",[7]; [12],100
same,"Plant response rating, Crabgrass, Large",[8]; [13],50
same,"Plant response rating, Crabgrass, Large",[8]; [14],55
same,"Plant response rating, Crabgrass, Large",[8]; [15],80
same,"Plant response rating, Crabgrass, Large",[8]; [16],90
same,"Plant response rating, Crabgrass, Large",[8]; [17],100
same,"Plant response rating, Crabgrass, Large",[8]; [18],100
same,"Plant response rating, Crabgrass, Large",[8]; [19],100
same,"Plant response rating, Crabgrass, Large",[8]; [20],100
same,"Plant response rating, Blackgrass",[9]; [13],55
same,"Plant response rating, Blackgrass",[9]; [14],60
same,"Plant response rating, Blackgrass",[9]; [15],70
same,"Plant response rating, Blackgrass",[9]; [16],90
same,"Plant response rating, Blackgrass",[9]; [17],90
same,"Plant response rating, Blackgrass",[9]; [18],90
same,"Plant response rating, Blackgrass",[9]; [19],90
same,"Plant response rating, Blackgrass",[9]; [20],90
Cc1nn(-c2ccc(C(F)(F)F)c(F)c2)nc1Cc1ccnc(C(F)(F)F)c1 [Compound 162],"Plant response rating, Velvetleaf",[1]; [10],90
same,Velvetleaf plant response rating,"[1]; Postemergence, 500 g ai/ha",100
same,"Plant response rating, Velvetleaf",[1]; [11],100
same,"Plant response rating, Velvetleaf",[1]; [12],100
same,"Plant response rating, Pigweed",[2]; [13],85
same,"Plant response rating, Pigweed",[2]; [14],85
same,"Plant response rating, Pigweed",[2]; [15],90
same,"Plant response rating, Pigweed",[2]; [16],95
same,"Plant response rating, Pigweed",[2]; [17],100
same,"Plant response rating, Pigweed",[2]; [18],100
same,"Plant response rating, Pigweed",[2]; [19],100
same,"Plant response rating, Pigweed",[2]; [20],100
same,"Plant response rating, Galium",[3]; [13],75
same,"Plant response rating, Galium",[3]; [14],75
same,"Plant response rating, Galium",[3]; [15],80
same,"Plant response rating, Galium",[3]; [16],95
same,"Plant response rating, Galium",[3]; [17],100
same,"Plant response rating, Galium",[3]; [19],100
same,"Plant response rating, Galium",[3]; [20],100
same,"Plant response rating, Oat, Wild",wild oat (Avena fatua); [21],40
same,"Plant response rating, Oat, Wild",wild oat (Avena fatua); [22],60
same,"Plant response rating, Oat, Wild",wild oat (Avena fatua); [23],60
same,"Plant response rating, Oat, Wild","wild oat (Avena fatua); 250 g ai/ha, scale 0 to 100",90
same,"Plant response rating, Johnsongrass",[4]; [13],45
same,"Plant response rating, Johnsongrass",[4]; [14],80
same,"Plant response rating, Johnsongrass",[4]; [15],80
same,"Plant response rating, Johnsongrass",[4]; [16],98
same,"Plant response rating, Johnsongrass",[4]; [17],35
same,"Plant response rating, Johnsongrass",[4]; [18],60
same,"Plant response rating, Johnsongrass",[4]; [19],98
same,"Plant response rating, Johnsongrass",[4]; [20],98
same,"Plant response rating, Ragweed",[5]; [13],85
same,"Plant response rating, Ragweed",[5]; [15],85
same,"Plant response rating, Ragweed",[5]; [16],95
same,"Plant response rating, Ragweed",[5]; [17],50
same,"Plant response rating, Ragweed",[5]; [18],75
same,"Plant response rating, Ragweed",[5]; [19],80
same,"Plant response rating, Ragweed",[5]; [20],95
same,"Plant response rating, Velvetleaf",[6]; [13],35
same,"Plant response rating, Velvetleaf",[6]; [14],55
same,"Plant response rating, Velvetleaf",[6]; [15],60
same,"Plant response rating, Velvetleaf",[6]; [16],85
same,"Plant response rating, Velvetleaf",[6]; [17],55
same,"Plant response rating, Velvetleaf",[6]; [18],80
same,"Plant response rating, Velvetleaf",[6]; [19],100
same,"Plant response rating, Velvetleaf",[6]; [20],100
same,"Plant response rating, Kochia",kochia (Kochia scoparia); [21],90
same,"Plant response rating, Kochia",kochia (Kochia scoparia); [22],90
same,"Plant response rating, Kochia",kochia (Kochia scoparia); [23],95
same,"Plant response rating, Kochia","kochia (Kochia scoparia); 250 g ai/ha, scale 0 to 100",95
same,"Plant response rating, Corn",corn (Zea mays); [13],15
same,"Plant response rating, Corn",corn (Zea mays); [14],30
same,"Plant response rating, Corn",corn (Zea mays); [15],30
same,"Plant response rating, Corn",corn (Zea mays); [16],40
same,"Plant response rating, Corn",corn (Zea mays); [17],5
same,"Plant response rating, Corn",corn (Zea mays); [18],20
same,"Plant response rating, Corn",corn (Zea mays); [19],20
same,"Plant response rating, Corn",corn (Zea mays); [20],35
same,"Plant response rating, Morningglory",[7]; [10],90
same,Morningglory plant response rating,"[7]; Postemergence, 500 g ai/ha",90
same,"Plant response rating, Morningglory",[7]; [11],30
same,"Plant response rating, Morningglory",[7]; [12],90
same,"Plant response rating, Crabgrass, Large",[8]; [13],20
same,"Plant response rating, Crabgrass, Large",[8]; [14],35
same,"Plant response rating, Crabgrass, Large",[8]; [15],35
same,"Plant response rating, Crabgrass, Large",[8]; [16],80
same,"Plant response rating, Crabgrass, Large",[8]; [17],100
same,"Plant response rating, Crabgrass, Large",[8]; [18],100
same,"Plant response rating, Crabgrass, Large",[8]; [19],100
same,"Plant response rating, Crabgrass, Large",[8]; [20],100
same,"Plant response rating, Blackgrass",[9]; [13],45
same,"Plant response rating, Blackgrass",[9]; [14],80
same,"Plant response rating, Blackgrass",[9]; [15],85
same,"Plant response rating, Blackgrass",[9]; [16],90
same,"Plant response rating, Blackgrass",[9]; [17],60
same,"Plant response rating, Blackgrass",[9]; [18],90
same,"Plant response rating, Blackgrass",[9]; [19],90
same,"Plant response rating, Blackgrass",[9]; [20],95
